Source: patent publication US20130267551A1, “SUBSTITUTED HYDROGENATED THIENO-PYRROLO[3,2-C]PYRIDINE, LIGANDS, A PHARMACEUTICAL COMPOSITION AND A METHOD FOR USING THE ABOVE” (ALLA CHEM, LLC, priority 2010, published 2013)
Where a name gives a salt, the structure may show the parent alone.

How the values were obtained:
[1] = system: Adrenergic α1B; experiment: competitive radioligand binding, Adrenergic α1B; settings: compound concentration of 1 μM
Procedure: (§1) Profiles of pharmacological activity of thieno-pyrrolo[3,2-c]pyridines of the general formula 1. Biological activity test of compounds of the general formula 1 was carried out in the setting of competitive radioligand binding [I. Okun, S. Tkachenko, A. Khvat, et al., Current Alzheimer Research, 7(2), 97-112 (2010)], using a wide range of therapeutic targets including G-protein coupled receptors (GPCR), ion channels and neuromediator transporters. The tested activity was determined by quantitative measurement of radio-labelled ligand displacement by tested compounds of the general formula 1 at their concentration of 1 μM.

[2] = target: T1, Adrenergic α1D (Homo sapiens, UniProt P25100); experiment: competitive radioligand binding, Adrenergic α1D; settings: compound concentration of 1 μM; read-out: radio-labelled ligand displacement, Adrenergic α1D
T1 sequence (P25100 1-572): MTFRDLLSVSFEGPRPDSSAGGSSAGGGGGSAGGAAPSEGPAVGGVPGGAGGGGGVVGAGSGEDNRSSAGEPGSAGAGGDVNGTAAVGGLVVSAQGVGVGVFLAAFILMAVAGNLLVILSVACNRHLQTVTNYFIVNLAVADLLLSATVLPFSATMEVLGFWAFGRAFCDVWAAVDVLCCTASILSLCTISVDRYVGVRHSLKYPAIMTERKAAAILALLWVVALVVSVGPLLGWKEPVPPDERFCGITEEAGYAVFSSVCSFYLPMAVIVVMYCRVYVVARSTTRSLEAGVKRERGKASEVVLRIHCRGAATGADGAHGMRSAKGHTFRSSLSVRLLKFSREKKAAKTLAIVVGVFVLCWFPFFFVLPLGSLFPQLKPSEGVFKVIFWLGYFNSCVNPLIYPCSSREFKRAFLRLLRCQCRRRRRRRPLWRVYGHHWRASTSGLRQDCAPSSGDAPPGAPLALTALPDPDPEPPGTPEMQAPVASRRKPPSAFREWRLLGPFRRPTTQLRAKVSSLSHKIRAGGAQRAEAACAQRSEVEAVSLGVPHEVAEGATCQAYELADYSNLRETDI
Procedure: as §1

[3] = target: Dopaminergic D3 (Homo sapiens, UniProt P35462); experiment: competitive radioligand binding, Dopaminergic D3; settings: compound concentration of 1 μM; read-out: radio-labelled ligand displacement, Dopaminergic D3
Chain of Dopaminergic D3 (P35462 whole entry): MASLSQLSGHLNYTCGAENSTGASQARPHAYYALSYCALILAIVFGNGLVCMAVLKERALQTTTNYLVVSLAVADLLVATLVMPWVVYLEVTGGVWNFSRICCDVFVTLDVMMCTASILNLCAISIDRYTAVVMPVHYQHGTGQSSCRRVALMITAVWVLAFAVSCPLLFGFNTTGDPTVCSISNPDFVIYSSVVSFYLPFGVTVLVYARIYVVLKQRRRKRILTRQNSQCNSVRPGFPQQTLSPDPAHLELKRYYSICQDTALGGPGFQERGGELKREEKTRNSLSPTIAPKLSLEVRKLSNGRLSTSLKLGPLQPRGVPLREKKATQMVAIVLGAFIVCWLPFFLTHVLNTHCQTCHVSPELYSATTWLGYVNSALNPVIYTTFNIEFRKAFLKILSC
Procedure: as §1

[4] = target: T2, Dopaminergic D4.2 (Homo sapiens, UniProt P21917, DEL265-296); experiment: competitive radioligand binding, Dopaminergic D4.2; settings: compound concentration of 1 μM; read-out: radio-labelled ligand displacement, Dopaminergic D4.2
T2 sequence (P21917 with tags, fused parts or gaps DEL265-296): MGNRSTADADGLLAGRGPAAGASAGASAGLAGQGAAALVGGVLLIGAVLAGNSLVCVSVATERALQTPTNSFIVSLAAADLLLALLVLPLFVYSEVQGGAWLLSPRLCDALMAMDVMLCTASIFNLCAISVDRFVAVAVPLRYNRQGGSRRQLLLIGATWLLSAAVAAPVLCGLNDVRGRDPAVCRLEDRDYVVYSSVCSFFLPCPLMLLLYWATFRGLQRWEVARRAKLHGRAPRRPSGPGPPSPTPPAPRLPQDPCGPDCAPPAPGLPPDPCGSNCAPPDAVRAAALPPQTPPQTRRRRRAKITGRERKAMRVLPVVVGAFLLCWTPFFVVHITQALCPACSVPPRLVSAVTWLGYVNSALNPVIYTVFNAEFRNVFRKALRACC
Procedure: as §1

[5] = target: Histaminergic H2 (Homo sapiens, UniProt P25021); experiment: competitive radioligand binding, Histaminergic H2; settings: compound concentration of 1 μM; read-out: radio-labelled ligand displacement, Histaminergic H2
Chain of Histaminergic H2 (P25021 whole entry): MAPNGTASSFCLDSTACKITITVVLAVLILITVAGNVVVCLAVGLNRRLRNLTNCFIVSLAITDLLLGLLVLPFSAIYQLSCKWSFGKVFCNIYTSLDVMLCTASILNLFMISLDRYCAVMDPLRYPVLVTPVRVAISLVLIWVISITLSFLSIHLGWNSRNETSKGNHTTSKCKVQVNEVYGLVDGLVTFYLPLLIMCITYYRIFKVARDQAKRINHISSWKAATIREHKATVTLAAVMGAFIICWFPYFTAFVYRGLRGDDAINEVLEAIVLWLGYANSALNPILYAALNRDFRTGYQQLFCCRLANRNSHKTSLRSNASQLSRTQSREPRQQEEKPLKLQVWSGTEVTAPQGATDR
Procedure: as §1

[6] = system: Therapeutic targets (Adrenergic, Dopaminergic, Histaminergic, Serotoninergic); experiment: Profiles of pharmacological activity in competitive radioligand binding (whole panel); settings: 1 μM, grades not defined
Procedure: as §1

[7] = system: male mice of BALB/c line; experiment: Passive Avoidance of mice in Shuttle Chamber (memory disturbed by Scopolamine); type: in vivo; settings: intraperitoneally 30 minutes before training, in combination with Scopolamine
Procedure: Nootropic action (enhancement of memory disturbed by Scopolamine) of compounds of the general formula 1 in test “Passive Avoidance of mice in Shuttle Chamber”. Shuttle chamber (Ugo Basile, Italy) consisted of two sections was used. […] Sections were connected through a hole which could be overlapped by vertical door. The floor was made of transverse metal bars on which DC current impulses could be fed. Experiments were carried out in aged male mice of BALB/c line weighing 20-24 g. On the first day of experiment 30 minutes before training mice were injected intraperitoneally with physiological solution, (0.3 mg/kg) or Scopolamine in combination with compound 3.6(1).HCl, or Scopolamine in combination with compound 2.5(1).HCl. Each group consisted of 8 animals. Animals were placed in light section, and latent period of the first entry into the dark chamber was registered. Then the vertical door was closed and the animal was punished by 0.6 mA DC current for 3 seconds. After that the animal was taken back to its home cage. In 22-24 hours the same animal was placed again in light section of shuttle chamber and latent period of its first entry into dark section, total time of its stay in light section and number of entries into dark section was registered. Each monitoring lasted for 5 minutes. […]

[8] = system: male mice of BALB/c line; experiment: Porsolt's Forced Swim Test; type: in vivo; settings: after 4 days injections in dose 1 mg/kg, last 5 minutes of the test
Procedure: Antidepressant action of antagonists of the general formula 1 in Porsolt's Forced Swim Test. Test apparatus represented a plastic vessel filled with water up to height of 18 cm at 20-22° C. Experiments were carried out in aged male mice of BALB/c line weighing 20-24 g.
Mice were placed in water and for 15 minutes duration of immobile hanging in water so called behavioural despaire, which is considered to be a measure of depressively-like state, was registered. The last 5 minutes of the test were used for analysis. Automated computerized detection of motion with videosystem and Any-maze program were used in the test.

[9] = system: male mice of BALB/c line; experiment: Mice behavior in tail suspension test; type: in vivo; settings: after 4 days injections in dose of 0.1 mg/kg, 6 minutes
Procedure: Antidepressant action of compounds of the general formula 1 in test “Mice behavior in tail suspension test”. Experiments were carried out in aged male mice of BALB/c line weighing 20-24 g. Mice were suspended by tail with scotch tape on holder over horizontal surface at height of about 40 cm, and for 6 minutes of total duration of complete immobility episodes which is considered to be a measure of depressively-like state was registered. Automated computerized detection of motion with videosystem and Any-maze program were used in test.

[10] = system: Mice of SHK line; experiment: Prepulse inhibition of startle response in mice (Apomorphine); settings: 1 mg/kg, subcutaneously 60 minutes before the test

SMILES | radio-labelled ligand displacement, Adrenergic α1B [1] | inhibition at 1 µM [2] | inhibition at 1 µM [3] | inhibition at 1 µM [4] | inhibition at 1 µM [5] | grade of the activity profile (poor / satisfactory / good) [6] | Nootropic action: training disturbed by Scopolamine [7] | Antidepressant action: duration of immobile hanging in water [8] | Antidepressant action: duration of complete immobility [9] | Antipsychotic activity: disturbance of prepulse inhibition of startle caused by Apomorphine [10]
Cc1cc2c(s1)c1c(n2-c2cccc(F)c2)CCN(C)C1 [2.4(3)•HCl, 2,7-dimethyl-4-(3-fluorophenyl)-5,6,7,8-tetrahydro-4H-thieno[2′,3′:4,5]pyrrolo[3,2-c]pyridine] | 10% | 28% | 11% | 3% | 29% | poor | – | – | – | –
Cc1cc2c(s1)c1c(n2Cc2ccccc2)CCN(C)C1.Cl [2.5(1)•HCl, 4-Benzyl-2,7-dimethyl-5,6,7,8-tetrahydro-4H-thieno[2′,3′:4,5]pyrrolo[3,2-c]pyridine hydrochloride] | 10% | 21% | 16% | -3% | 44% | – | improve training disturbed by Scopolamine | decrease this index | decrease the duration of complete immobility of mice | prevented disturbance of prepulse inhibition of startle caused by Apomorphine
Cc1ccc(Cn2c3c(c4sc(Cl)cc42)C(C)N(C)C(C)C3)cn1 (stereo not shown) [2.5(4)•HCl, 4-(6-methylpyridin-3-ylmethyl)-6,7,8-trimethyl-2-chloro-5,6,7,8-tetrahydro-4H-thieno[2′,3′:4,5]pyrrolo[3,2-c]pyridine] | 38% | 29% | 15% | -1% | 83% | satisfactory | – | – | – | –
Cc1cc2c(s1)c1c(n2CCc2ccccc2)CCN(C)C1.Cl [2.6(1)•HCl, 2,7-Dimethyl-4-(2-phenylethyl)-5,6,7,8-tetrahydro-4H-thieno[2′,3′:4,5]pyrrolo[3,2-c]pyridine hydrochloride] | 90% | 64% | 62% | 14% | 56% | – | – | – | – | –
CC1Cc2c(c3sc(Cl)cc3n2C#Cc2cccc(F)c2)C(C)N1C (stereo not shown) [2.10(3)•HCl, 6,7,8-trimethyl-4-(3-fluorophenyl)ethynyl-2-chloro-5,6,7,8-tetrahydro-4H-thieno[2′,3′:4,5]pyrrolo[3,2-c]pyridine] | 5% | 11% | 23% | 4% | 33% | poor | – | – | – | –
Cc1ccc(CCCn2c3c(c4scc(Cl)c42)CN(C)CC3)cn1 [2.12(5)•HCl, 7-methyl-4-[3-(6-methylpyridin-3-yl)propyl]-3-chloro-5,6,7,8-tetrahydro-4H-thieno[2′,3′:4,5]pyrrolo[3,2-c]pyridine] | 97% | 93% | 71% | 69% | 96% | good | – | – | – | –
Cc1cc2c3c(n(Cc4ccccc4)c2s1)CCN(C)C3.Cl [3.5(1)•HCl, 8-Benzyl-2,5-dimethyl-5,6,7,8-tetrahydro-4H-thieno[3′,2′:4,5]pyrrolo[3,2-c]pyridine hydrochloride] | 57% | 44% | 19% | -5% | 91% | – | – | – | – | –
Cc1cc2c3c(n(CCc4ccccc4)c2s1)CCN(C)C3.Cl [3.6(1)•HCl, 2,5-Dimethyl-8-(2-phenylethyl)-5,6,7,8-tetrahydro-4H-thieno[3′,2′:4,5]pyrrolo[3,2-c]pyridine hydrochloride] | 99% | 92% | 73% | 71% | 96% | – | improve training disturbed by Scopolamine | decrease this index | decrease the duration of complete immobility of mice | prevented disturbance of prepulse inhibition of startle caused by Apomorphine
Cc1cc2c3c(n(Cc4ccccc4)c2s1)CC1CCC3N1C (stereo not shown) [3.13(1)•HCl, 9-benzyl-2,10-dimethyl-4,5,6,7,8,9-hexahydro-4,7-epiminocyclohepta[b]thieno[3,2-d]pyrrole] | 69% | 43% | 21% | 31% | 70% | satisfactory | – | – | – | –
